Data: PubChem BioAssay AID248 (DTP/NCI, 2004)
“And” between values parts separate entries of the source, which are not always exact repeats. Identical values can stand only once. Toxic doses and inconclusive results are not listed. Cut-off read from the data, not from the text of the source: active = T/C of 150% or more; inactive = T/C below 125%.

Test system: L1210 leukemia ip in BDF1 mice, survival T/C
Assay: NCI In Vivo Anticancer Drug Screen. Data for tumor model L1210 Leukemia (intraperitoneal) in B6D2F1 (BDF1) mice
Conditions: endpoint: mean survival time, higher = longer survival
Outline: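 Survival endpoint. Drug-treated group vs vehicle group, expressed as T divided by C. Tumor passaged by transplantation.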

[1] = dose: 100.0 mg/kg/injection, schedule: Q01DX009 (ip), vehicle: saline with Tween-80
[2] = dose: 200.0 mg/kg/injection, schedule: Q01DX009 (ip), vehicle: saline with Tween-80
[3] = dose: 100.0 mg/kg/injection, schedule: Q01DX001 (ip), vehicle: saline
[4] = dose: 200.0 mg/kg/injection, schedule: Q01DX001 (ip), vehicle: saline
[5] = dose: 400.0 mg/kg/injection, schedule: Q01DX001 (ip), vehicle: saline
[6] = dose: 50.0 mg/kg/injection, schedule: Q04DX003 (ip), vehicle: saline
[7] = dose: 100.0 mg/kg/injection, schedule: Q04DX003 (ip), vehicle: saline
[8] = dose: 200.0 mg/kg/injection, schedule: Q04DX003 (ip), vehicle: saline
[9] = dose: 100.0 mg/kg/injection, schedule: Q01DX009 (ip), vehicle: Klucel (hydroxypropylcellulose) (HPC)
[10] = dose: 200.0 mg/kg/injection, schedule: Q01DX009 (ip), vehicle: Klucel (hydroxypropylcellulose) (HPC)
[11] = dose: 400.0 mg/kg/injection, schedule: Q01DX009 (ip), vehicle: Klucel (hydroxypropylcellulose) (HPC)
[12] = dose: 100.0 mg/kg/injection, schedule: Q01DX009 (ip), vehicle: saline
[13] = dose: 200.0 mg/kg/injection, schedule: Q01DX009 (ip), vehicle: saline
[14] = dose: 400.0 mg/kg/injection, schedule: Q01DX009 (ip), vehicle: saline
[15] = dose: 50.0 mg/kg/injection, schedule: Q04DX003 (ip), vehicle: Klucel (hydroxypropylcellulose) (HPC)
[16] = dose: 100.0 mg/kg/injection, schedule: Q04DX003 (ip), vehicle: Klucel (hydroxypropylcellulose) (HPC)
[17] = dose: 200.0 mg/kg/injection, schedule: Q04DX003 (ip), vehicle: Klucel (hydroxypropylcellulose) (HPC)
[18] = dose: 400.0 mg/kg/injection, schedule: Q04DX003 (ip), vehicle: Klucel (hydroxypropylcellulose) (HPC)
[19] = dose: 50.0 mg/kg/injection, schedule: Q04DX002 (ip), vehicle: Klucel (hydroxypropylcellulose) (HPC)
[20] = dose: 100.0 mg/kg/injection, schedule: Q04DX002 (ip), vehicle: Klucel (hydroxypropylcellulose) (HPC)

Measured: T/C

CC[N+](CC)(CC)CCCC[P+](CC)(CC)CC
inactive: dose: 12.0 mg/kg/injection, schedule: Q04DX003 (ip), vehicle: other 95 % of control | dose: 25.0 mg/kg/injection, schedule: Q04DX003 (ip), vehicle: other 90 % of control | dose: 50.0 mg/kg/injection, schedule: Q04DX003 (ip), vehicle: other 93 % of control

CC(C)(C)c1cc(/C=N/NC(=O)CC2CCCCC2)cc(C(C)(C)C)c1O
inactive: [1] 92 % of control | [2] 92 % of control | dose: 400.0 mg/kg/injection, schedule: Q01DX009 (ip), vehicle: saline with Tween-80 97 % of control

N#Cc1ccccc1CC(=O)c1ccccc1
inactive: dose: 50.0 mg/kg/injection, schedule: Q01DX001 (ip), vehicle: saline 101 % of control | [3] 97 % of control | [4] 93 % of control | [5] 100 % of control

CCOP(=O)(/C=C/NC1CCCCC1)OCC
inactive: [6] 90 % of control | [3] 109 % of control | [7] 89 % of control | [4] 114 % of control | [8] 101 % of control

CCC(=N)C1CCCCC1
inactive: dose: 75.0 mg/kg/injection, schedule: Q01DX001 (ip), vehicle: carboxymethylcellulose (CMC) 102 % of control | dose: 150.0 mg/kg/injection, schedule: Q01DX001 (ip), vehicle: carboxymethylcellulose (CMC) 93 % of control

CC1(N)COP(=O)(NCc2ccccc2)OC1 (configuration not stated)
inactive: [3] 95 % of control | [4] 103 % of control | [5] 103 % of control

O=C(Nc1cccc(C(F)(F)F)c1)Nc1cccc2ccc(O)cc12
inactive: [9] 107 % of control | [10] 106 % of control | [11] 98 % of control

CC(C)c1ccccc1SCC1=NCCN1
inactive: dose: 10.0 mg/kg/injection, schedule: Q04DX003 (ip), vehicle: Klucel (hydroxypropylcellulose) (HPC) 103 % of control | dose: 20.0 mg/kg/injection, schedule: Q04DX003 (ip), vehicle: Klucel (hydroxypropylcellulose) (HPC) 115 % of control

CCc1ccccc1NC(=O)Oc1cccc(C(F)(F)F)c1
inactive: [12] 104 % of control | [13] 94 % of control | [14] 103 % of control

CC(=O)CCC(=O)OCCOC(=O)CCC(C)=O
inactive: [12] 98 % of control and 105 % of control | [7] 96 % of control and 104 % of control | [13] 93 % of control and 95 % of control | [8] 100 % of control | [14] 98 % of control and 104 % of control | dose: 400.0 mg/kg/injection, schedule: Q04DX003 (ip), vehicle: saline 100 % of control and 106 % of control

CN(C)/N=C/c1ccc(N(C)C)cc1
inactive: dose: 25.0 mg/kg/injection, schedule: Q01DX009 (ip), vehicle: Klucel (hydroxypropylcellulose) (HPC) 100 % of control | dose: 25.0 mg/kg/injection, schedule: Q04DX003 (ip), vehicle: Klucel (hydroxypropylcellulose) (HPC) 101 % of control | dose: 50.0 mg/kg/injection, schedule: Q01DX009 (ip), vehicle: Klucel (hydroxypropylcellulose) (HPC) 112 % of control | [15] 96 % of control | [16] 111 % of control

CC(C)(C)c1ccc(-c2nnc(-c3ccc(-c4ccccc4)cc3)o2)cc1
inactive: [16] 95 % of control | [17] 92 % of control | [18] 90 % of control

O=S(=O)(OC1CCCC1Cl)c1ccc(Br)cc1 (configuration not stated)
inactive: dose: 50.0 mg/kg/injection, schedule: Q01DX009 (ip), vehicle: saline with Tween-80 93 % of control | [1] 93 % of control | [2] 86 % of control

C=CCC(O)c1ccccc1 (configuration not stated)
inactive: dose: 100.0 mg/kg/injection, schedule: Q04DX002 (ip), vehicle: saline 103 % of control | dose: 200.0 mg/kg/injection, schedule: Q04DX002 (ip), vehicle: saline 100 % of control | dose: 400.0 mg/kg/injection, schedule: Q04DX002 (ip), vehicle: saline 113 % of control

O=C(c1ccccc1)c1ccco1
inactive: dose: 50.0 mg/kg/injection, schedule: Q01DX009 (ip), vehicle: saline 102 % of control | [12] 91 % of control | [13] 93 % of control

CN(C)C1=CS(=O)(=O)C1
inactive: dose: 75.0 mg/kg/injection, schedule: Q01DX001 (ip), vehicle: saline 94 % of control | dose: 150.0 mg/kg/injection, schedule: Q01DX001 (ip), vehicle: saline 97 % of control

Nc1ncnc(N)n1
inactive: dose: 50.0 mg/kg/injection, schedule: Q01DX001 (ip), vehicle: carboxymethylcellulose (CMC) 98 % of control | dose: 100.0 mg/kg/injection, schedule: Q01DX001 (ip), vehicle: carboxymethylcellulose (CMC) 101 % of control | dose: 200.0 mg/kg/injection, schedule: Q01DX001 (ip), vehicle: carboxymethylcellulose (CMC) 101 % of control

CCCCn1c(Cl)c(C(=O)O)c2ccccc21
inactive: [15] 94 % of control | [16] 91 % of control | [17] 90 % of control

O=c1cnc2ccc3ccccc3c2[nH]1
inactive: dose: 25.0 mg/kg/injection, schedule: Q04DX002 (ip), vehicle: Klucel (hydroxypropylcellulose) (HPC) 97 % of control | [19] 93 % of control | [20] 90 % of control

C=CCCCCCCCC[CH2][Sn]([Cl])([Cl])[Cl]
inactive: [6] 93 % of control | [7] 101 % of control

CCCCC(C(=O)OCC)C(CCC1CCCCC1)(C(=O)OCC)C(=O)OCC (configuration not stated)
inactive: [9] 95 % of control | [16] 96 % of control | [10] 110 % of control | [17] 106 % of control | [11] 105 % of control | [18] 95 % of control

CC(C)C(Sc1nc(N)nc2nc[nH]c12)C(=O)O (configuration not stated)
inactive: [3] 98 % of control | dose: 100.0 mg/kg/injection, schedule: Q01DX009 (ip), vehicle: saline sonified 94 % of control | [16] 96 % of control | [4] 96 % of control | dose: 200.0 mg/kg/injection, schedule: Q01DX009 (ip), vehicle: saline sonified 106 % of control | [17] 100 % of control | [5] 102 % of control | dose: 400.0 mg/kg/injection, schedule: Q01DX009 (ip), vehicle: saline sonified 100 % of control | [18] 98 % of control

CSc1nccc(=S)[nH]1
inactive: [19] 88 % of control | [20] 92 % of control | dose: 200.0 mg/kg/injection, schedule: Q04DX002 (ip), vehicle: Klucel (hydroxypropylcellulose) (HPC) 95 % of control
